# Data from patent publication US9902722B2, “Biaryl kinase inhibitors” (BRISTOL-MYERS SQUIBB COMPANY, priority 2014, dated 2018).
# Molecular target: GST-Xa-hAAK1 (Homo sapiens (Human), UniProt Q2M2I8)
# Experiment: AAK1 Kinase Assay;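 also: each compound tested across an eleven-point concentration series, with IC50 obtained through non-linear regression fitting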
# Assay type: biochemical
# Settings: bacterially expressed GST-Xa-hAAK1 3.5 nM; ATP 22 μM; peptide substrate 1.5 μM; 3 hours at room temperature; Caliper LabChip 3000
# Description: The assays were performed in U-bottom 384-well plates. […] The reactions were initiated by the combination of bacterially expressed, GST-Xa-hAAK1 with substrates and test compounds. The reactions were incubated at room temperature for 3 hours and terminated by adding 60 μl of 35 mM EDTA buffer to each sample. […] Compounds were dissolved at 10 mM in dimethylsulfoxide (DMSO) and evaluated at eleven concentrations. IC50 values were derived by non-linear regression analysis.
# Chain of GST-Xa-hAAK1 (Q2M2I8 whole entry): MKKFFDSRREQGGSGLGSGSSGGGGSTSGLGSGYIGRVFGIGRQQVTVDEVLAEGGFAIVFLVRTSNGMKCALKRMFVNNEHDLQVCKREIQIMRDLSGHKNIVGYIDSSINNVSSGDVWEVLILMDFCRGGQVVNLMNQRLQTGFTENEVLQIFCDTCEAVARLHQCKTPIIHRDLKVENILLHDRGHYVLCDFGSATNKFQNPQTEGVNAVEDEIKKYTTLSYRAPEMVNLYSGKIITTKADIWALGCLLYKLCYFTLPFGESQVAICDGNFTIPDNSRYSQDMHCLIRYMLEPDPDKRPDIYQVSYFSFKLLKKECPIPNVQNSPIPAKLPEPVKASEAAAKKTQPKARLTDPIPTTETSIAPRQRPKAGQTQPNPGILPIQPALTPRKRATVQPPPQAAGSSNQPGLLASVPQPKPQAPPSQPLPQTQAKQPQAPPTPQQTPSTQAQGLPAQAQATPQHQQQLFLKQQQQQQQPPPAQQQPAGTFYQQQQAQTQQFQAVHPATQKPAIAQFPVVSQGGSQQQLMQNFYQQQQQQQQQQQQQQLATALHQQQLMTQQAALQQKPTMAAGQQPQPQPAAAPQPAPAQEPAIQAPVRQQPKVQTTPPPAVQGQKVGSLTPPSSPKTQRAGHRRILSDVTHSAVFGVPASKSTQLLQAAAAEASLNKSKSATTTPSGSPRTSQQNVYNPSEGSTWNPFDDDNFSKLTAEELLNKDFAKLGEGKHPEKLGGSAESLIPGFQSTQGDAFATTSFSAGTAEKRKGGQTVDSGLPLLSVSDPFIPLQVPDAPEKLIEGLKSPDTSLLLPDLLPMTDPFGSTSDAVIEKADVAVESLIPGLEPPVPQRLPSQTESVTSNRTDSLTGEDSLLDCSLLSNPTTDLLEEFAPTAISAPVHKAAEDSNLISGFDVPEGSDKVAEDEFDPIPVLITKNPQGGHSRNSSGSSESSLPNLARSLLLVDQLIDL
row,SMILES,IC50
1,"COC(=O)Nc1cc(-c2cc(C(F)F)c(OC[C@@](N)(CF)CC(C)C)cn2)ccn1 [Example 182, (R)-methyl (5-((2-amino-2-(fluoromethyl)-4-methylpentyl)oxy)-4-(difluoromethyl)-[2,4′-bipyridin]-2′-yl)carbamate]",8.7 nM
2,"Cc1c(-c2ccc(OC[C@@](C)(N)CC(C)C)c(C(F)(F)F)c2)ccnc1F [Example 41, (S)-1-(4-(2-fluoro-3-methylpyridin-4-yl)-2-(trifluoromethyl)phenoxy)-2,4-dimethylpentan-2-amine]",3.8 nM
3,"COc1cc(-c2ccnc3ccccc23)cnc1OC[C@@](C)(N)CC(C)C [Example 79, (S)-1-((3-methoxy-5-(quinolin-4-yl)pyridin-2-yl)oxy)-2,4-dimethylpentan-2-amine]",16 nM
4,"Cc1cc(-c2cc(Cl)c(OC[C@@](C)(N)CC(C)C)cn2)ccn1 [Example 238, (S)-1-((4-chloro-2′-methyl-[2,4′-bipyridin]-5-yl)oxy)-2,4-dimethylpentan-2-amine]",2.1 nM
5,"CC(=O)Nc1cccc(-c2ccc(OCC(C)(N)CC(C)C)c(C)c2)c1 (stereo not drawn) [Example 250, N-(4′-((2-amino-2,4-dimethylpentyl)oxy)-3′-methyl-[1,1′-biphenyl]-3-yl)acetamide]",659 nM
6,"COC(=O)Nc1cc(-c2ccc(OC[C@@](N)(CF)CC(C)C)c(C(F)F)n2)ccn1 [Example 180, (R)-methyl (5-((2-amino-2-(fluoromethyl)-4-methylpentyl)oxy)-6-(difluoromethyl)-[2,4′-bipyridin]-2′-yl)carbamate]",24 nM
7,"CC(=O)Nc1cc(-c2cc(F)c(OC[C@@H](N)CC(C)C)c(Cl)c2)ccn1 [Example 10, (S)—N-(4-(4-((2-amino-4-methylpentyl)oxy)-3-chloro-5-fluorophenyl)pyridin-2-yl)acetamide]",10 nM
8,"Cc1cc(-c2cc(C(F)F)c(OC[C@@](N)(CF)CC(C)C)cn2)ccn1 [Example 188, (R)-1-((4-(difluoromethyl)-2′-methyl-[2,4′-bipyridin]-5-yl)oxy)-2-(fluoromethyl)-4-methylpentan-2-amine]",92 nM
9,"COC(=O)Nc1cc(-c2ccc(OC[C@@](C)(N)CC(C)C)c3ccccc23)ccn1 [Example 208, (S)-methyl (4-(4-((2-amino-2,4-dimethylpentyl)oxy)naphthalen-1-yl)pyridin-2-yl)carbamate]",4.6 nM
10,"Cc1cc(-c2cnc(OC[C@@](C)(N)CC(C)C)c(C(F)F)c2)ccn1 [Example 194, (S)-1-((5-(difluoromethyl)-2′-methyl-[3,4′-bipyridin]-6-yl)oxy)-2,4-dimethylpentan-2-amine]",1.5 nM
11,"CC(C)C[C@](C)(N)COc1cnc(-c2ccnc3ccc(F)cc23)cc1C(F)F [Example 132, (S)-1-((4-(difluoromethyl)-6-(6-fluoroquinolin-4-yl)pyridin-3-yl)oxy)-2,4-dimethylpentan-2-amine]",1.5 nM
12,"Cc1cc(-c2ccc(OC[C@@](C)(N)CC(C)C)c(C(F)(F)F)c2)c2ccccc2n1 [Example 216, (S)-2,4-dimethyl-1-(4-(2-methylquinolin-4-yl)-2-(trifluoromethyl)phenoxy)pentan-2-amine]",25 nM
13,"Cc1cc(-c2ccnc(F)c2)ccc1OC[C@@](C)(N)CC(C)C [Example 92, (S)-1-(4-(2-fluoropyridin-4-yl)-2-methylphenoxy)-2,4-dimethylpentan-2-amine]",5.4 nM
14,"CC(C)C[C@](C)(O)COc1cnc(-c2ccnc3ccccc23)cc1C(F)F [Example 176, (S)-1-((4-(difluoromethyl)-6-(quinolin-4-yl)pyridin-3-yl)oxy)-2,4-dimethylpentan-2-ol]",53 nM
15,"CC(C)C[C@](C)(N)COc1ccc(-c2ccnc3cc(F)cc(F)c23)nc1Cl [Example 135, (S)-1-((2-chloro-6-(5,7-difluoroquinolin-4-yl)pyridin-3-yl)oxy)-2,4-dimethylpentan-2-amine]",3.5 nM
16,"CC(C)C[C@](C)(N)COc1ccc(-c2ccnc3ccccc23)nc1Cl [Example 83, (S)-1-((2-chloro-6-(quinolin-4-yl)pyridin-3-yl)oxy)-2,4-dimethylpentan-2-amine]",1.8 nM

# Compounds with a lower IC50, results first:
row,IC50,SMILES
1,1.4 nM,"CC(C)C[C@](C)(N)COc1cnc(-c2ccnc3cc(F)cc(F)c23)cc1C(F)F [Example 130, (S)-1-((4-(difluoromethyl)-6-(5,7-difluoroquinolin-4-yl)pyridin-3-yl)oxy)-2,4-dimethylpentan-2-amine]"
2,1.2 nM,"CC(C)C[C@](C)(N)COc1ncc(-c2ccnc3ccc(F)cc23)cc1C(F)F [Example 200, (S)-1-((3-(difluoromethyl)-5-(6-fluoroquinolin-4-yl)pyridin-2-yl)oxy)-2,4-dimethylpentan-2-amine]"
3,1.1 nM,"COC(=O)Nc1cc(-c2ccc(OC[C@@](C)(N)CC(C)C)c(C)n2)ccn1 [Example 64, (S)-methyl (5-((2-amino-2,4-dimethylpentyl)oxy)-6-methyl-[2,4′-bipyridin]-2′-yl)carbamate]"
4,1 nM,"CC(C)C[C@](C)(N)COc1ncc(-c2ccnc3cc(F)cc(F)c23)cc1C(F)(F)F [Example 218, (S)-1-((5-(5,7-difluoroquinolin-4-yl)-3-(trifluoromethyl)pyridin-2-yl)oxy)-2,4-dimethylpentan-2-amine]"
5,1 nM,"Cc1cc(-c2ccnc3ccc(Cl)cc23)ncc1OC[C@@](C)(N)CC(C)C [Example 229, (S)-1-((6-(6-chloroquinolin-4-yl)-4-methylpyridin-3-yl)oxy)-2,4-dimethylpentan-2-amine]"
6,0.93 nM,"Cc1cc(-c2ccnc3cc(F)ccc23)ncc1OC[C@@](C)(N)CC(C)C [Example 227, (S)-1-((6-(7-fluoroquinolin-4-yl)-4-methylpyridin-3-yl)oxy)-2,4-dimethylpentan-2-amine]"
7,0.93 nM,"CC(C)C[C@](C)(N)COc1ccc(-c2ccnc3ccc(F)cc23)cc1C(F)F [Example 116, (S)-1-(2-(difluoromethyl)-4-(6-fluoroquinolin-4-yl)phenoxy)-2,4-dimethylpentan-2-amine]"
8,0.92 nM,CC(C)C[C@](C)(N)COc1cnc(-c2ccnc3ccc(C(F)(F)F)cc23)cc1C(F)F [Example 133]
9,0.87 nM,"CC(C)C[C@](C)(N)COc1ccc(-c2ccnc3cccnc23)cc1C#N [Example 87, (S)-2-((2-amino-2,4-dimethylpentyl)oxy)-5-(1,5-naphthyridin-4-yl)benzonitrile]"
10,0.87 nM,"COC(=O)Nc1cc(-c2ccc(OC[C@@H](N)CC(C)C)c(-c3ccno3)c2)ccn1 [Example 14, (S)-methyl (4-(4-((2-amino-4-methylpentyl)oxy)-3-(isoxazol-5-yl)phenyl)pyridin-2-yl)carbamate]"
11,0.86 nM,"CC(C)C[C@](C)(N)COc1ccc(-c2ncnc3ccccc23)cc1C(F)(F)F [Example 214, (S)-2,4-dimethyl-1-(4-(quinazolin-4-yl)-2-(trifluoromethyl)phenoxy)pentan-2-amine]"
12,0.72 nM,"Cc1cc(-c2ccc(OC[C@@](C)(N)CC(C)C)c(C#N)c2)c(F)cn1 [Example 105, (S)-2-((2-amino-2,4-dimethylpentyl)oxy)-5-(5-fluoro-2-methylpyridin-4-yl)benzonitrile]"
13,0.7 nM,"Cc1ccc2c(-c3cnc(OC[C@@](C)(N)CC(C)C)c(C(F)F)c3)ccnc2c1 [Example 205, (S)-1-((3-(difluoromethyl)-5-(7-methylquinolin-4-yl)pyridin-2-yl)oxy)-2,4-dimethylpentan-2-amine]"
14,0.68 nM,"Cc1nccc(-c2ccc(OC[C@@](C)(N)CC(C)C)c(C#N)c2)c1F [Example 103, (S)-2-((2-amino-2,4-dimethylpentyl)oxy)-5-(3-fluoro-2-methylpyridin-4-yl)benzonitrile]"
15,0.65 nM,"COC(=O)Nc1cc(-c2ccc(OC[C@@](C)(N)CC(C)C)c(C#N)c2)ccn1 [Example 22, (S)-methyl (4-(4-((2-amino-2,4-dimethylpentyl)oxy)-3-cyanophenyl)pyridin-2-yl)carbamate]"
16,0.62 nM,"COC(=O)Nc1cc(-c2ccc(OC[C@@](C)(N)CC(C)C)c(C#N)c2)c(F)cn1 [Example 106, (S)-methyl (4-(4-((2-amino-2,4-dimethylpentyl)oxy)-3-cyanophenyl)-5-fluoropyridin-2-yl)carbamate]"
17,0.53 nM,"CC(C)C[C@](C)(N)COc1ccc(-c2ccnc3cc(F)cc(F)c23)cc1C(F)(F)F [Example 72, (S)-1-(4-(5,7-difluoroquinolin-4-yl)-2-(trifluoromethyl)phenoxy)-2,4-dimethylpentan-2-amine]"
18,0.53 nM,"CC(=O)Nc1cc(-c2ccc(OC[C@@H](N)CC(C)C)c(Cl)c2)ccn1 [Example 8, (S)—N-(4-(4-((2-amino-4-methylpentyl)oxy)-3-chlorophenyl)pyridin-2-yl)acetamide]"
19,0.51 nM,"CC(C)C[C@](C)(N)COc1ccc(-c2ccnc3ccc(F)cc23)cc1C(F)(F)F [Example 73, (S)-1-(4-(6-fluoroquinolin-4-yl)-2-(trifluoromethyl)phenoxy)-2,4-dimethylpentan-2-amine]"
20,0.51 nM,"Cc1cc(-c2cc(C(F)F)c(OC[C@@](C)(N)CC(C)C)cn2)ccn1 [Example 122, (S)-1-((4-(difluoromethyl)-2′-methyl-[2,4′-bipyridin]-5-yl)oxy)-2,4-dimethylpentan-2-amine]"
21,0.38 nM,"Cc1cc(-c2ccc(OC[C@@](C)(N)CC(C)C)c(C(F)F)c2)ccn1 [Example 50, (S)-1-(2-(difluoromethyl)-4-(2-methylpyridin-4-yl)phenoxy)-2,4-dimethylpentan-2-amine]"
22,0.24 nM,"CC(C)C[C@](C)(N)COc1cnc(-c2ccnc3ccccc23)cc1C(F)(F)F [Example 145, (S)-2,4-dimethyl-1-((6-(quinolin-4-yl)-4-(trifluoromethyl)pyridin-3-yl)oxy)pentan-2-amine]"
23,0.23 nM,"CC(C)C[C@](C)(N)COc1ncc(-c2ccnc3ccccc23)cc1C(F)F [Example 204, (S)-1-((3-(difluoromethyl)-5-(quinolin-4-yl)pyridin-2-yl)oxy)-2,4-dimethylpentan-2-amine]"
